Active and inactive are the calls of the source.
Legend:
[1] = target: T1, DNA repair and recombination protein RAD54-like (Homo sapiens, UniProt Q92698); assay: RAD54 Holliday junction migration blockers – biochemical, fluorescence, cherry-picked samples, dose series, confirmation (AID 651657); assay type: functional
T1 sequence (Q92698 whole entry): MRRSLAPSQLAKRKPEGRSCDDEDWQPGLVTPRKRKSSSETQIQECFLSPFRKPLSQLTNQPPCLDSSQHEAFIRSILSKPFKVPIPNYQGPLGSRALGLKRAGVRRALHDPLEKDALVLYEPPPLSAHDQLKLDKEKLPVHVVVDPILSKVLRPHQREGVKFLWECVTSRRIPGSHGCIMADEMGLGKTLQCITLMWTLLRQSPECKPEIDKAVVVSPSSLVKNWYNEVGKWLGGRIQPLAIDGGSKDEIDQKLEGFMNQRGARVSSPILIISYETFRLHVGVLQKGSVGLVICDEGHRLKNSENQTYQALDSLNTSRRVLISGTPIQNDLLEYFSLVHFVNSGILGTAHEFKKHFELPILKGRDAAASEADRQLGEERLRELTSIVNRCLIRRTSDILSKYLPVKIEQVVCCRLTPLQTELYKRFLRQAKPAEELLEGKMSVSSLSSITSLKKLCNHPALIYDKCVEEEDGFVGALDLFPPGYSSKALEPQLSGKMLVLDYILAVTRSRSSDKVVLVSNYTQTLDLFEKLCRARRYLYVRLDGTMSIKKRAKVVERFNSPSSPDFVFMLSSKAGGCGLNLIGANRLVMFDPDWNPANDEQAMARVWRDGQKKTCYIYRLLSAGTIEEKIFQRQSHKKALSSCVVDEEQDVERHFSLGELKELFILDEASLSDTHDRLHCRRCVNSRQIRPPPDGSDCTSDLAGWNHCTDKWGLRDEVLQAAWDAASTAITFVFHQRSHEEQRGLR

[2] = viability of PTEN-deleted HCT116 cells – cell-based, HCT116 PTEN knockout, dose response (AID 1047); assay type: functional;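 further: HCT116 colon tumor cells with PTEN knocked out; cells exposed to compound for 60 hours before readout; potency for loss of cell viability measured by luminescence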
[3] = NIH-3T3 fibroblast cytotoxicity, dose response, cytotoxicity control, cell-based, fluorescence, Alamar Blue, secondary assay (AID 2327); assay type: functional;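 further: NIH-3T3 mouse fibroblasts cultured with fluconazole at 8 µg/mL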
[4] = fluconazole-exposed Candida albicans growth modulators – fluorescence, retest, confirmation (AID 2467); assay type: functional, cell-based
[5] = viability of HCT116 lacking mutant beta-catenin – cell-based, human colon tumor, dose response (AID 1045); assay type: functional;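 further: HCT116 colon tumor cells with beta catenin knocked out; cells exposed to compound for 60 hours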
[6] = NIH3T3 cell viability loss – ATP luminescence, mouse fibroblasts, counter-screen, dose response (AID 2010); assay type: functional, cell-based;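 further: cells exposed to compound for about 90 hours before reading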
[7] = target: T2, CAAX prenyl protease 1 (Saccharomyces cerevisiae S288c, UniProt P47154); assay: yeast CAAX protease Ste24 inhibition – biochemical, S. cerevisiae, plate reader, cherry-pick, dose response (AID 488815)
T2 sequence (P47154 whole entry): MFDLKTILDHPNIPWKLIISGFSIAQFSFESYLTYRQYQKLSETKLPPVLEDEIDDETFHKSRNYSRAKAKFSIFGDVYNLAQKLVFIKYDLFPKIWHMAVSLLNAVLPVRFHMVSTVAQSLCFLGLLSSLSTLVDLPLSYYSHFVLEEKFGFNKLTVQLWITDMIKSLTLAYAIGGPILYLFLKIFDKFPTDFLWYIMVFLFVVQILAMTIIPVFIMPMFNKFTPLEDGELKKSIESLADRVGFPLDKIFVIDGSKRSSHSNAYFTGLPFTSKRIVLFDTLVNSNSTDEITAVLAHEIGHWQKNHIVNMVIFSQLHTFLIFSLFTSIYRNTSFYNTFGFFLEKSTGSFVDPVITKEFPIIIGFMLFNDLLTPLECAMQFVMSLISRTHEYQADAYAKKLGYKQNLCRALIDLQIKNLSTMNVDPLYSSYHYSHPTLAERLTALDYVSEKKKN

[8] = Trypanosoma cruzi growth suppression in host cells – NIH3T3 host cells, beta-gal luminescence, confirmation (AID 2044); assay type: functional, cell-based;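 further: intracellular parasites grown in NIH/3T3 mouse fibroblasts as host cells; luminescent beta-galactosidase reporter signal from transgenic T. cruzi replicating inside host cells; inhibitors lower the luminescence signal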
[9] = Counterscreen for AddAB inhibitors: absorbance-based bacterial cell-based high throughput dose response assay for inhibitors of bacterial viability. [Related pubchem assays (depositor defined):AID435030, AID449728, AID449731, AID488942, AID488955, AID488956]; assay type: functional
[10] = target: T3, Exodeoxyribonuclease V (Escherichia coli (strain K12), UniProt P04993+P07648+P08394); assay: RecBCD inhibition via phage-restricted bacterial growth – absorbance, V66 E. coli, mutant T4 phage, counter-screen for AddAB inhibitor project, dose response (AID 492957); assay type: functional, cell-based, Escherichia coli str. K-12 substr. MG1655
T3 sequence (P04993 whole entry): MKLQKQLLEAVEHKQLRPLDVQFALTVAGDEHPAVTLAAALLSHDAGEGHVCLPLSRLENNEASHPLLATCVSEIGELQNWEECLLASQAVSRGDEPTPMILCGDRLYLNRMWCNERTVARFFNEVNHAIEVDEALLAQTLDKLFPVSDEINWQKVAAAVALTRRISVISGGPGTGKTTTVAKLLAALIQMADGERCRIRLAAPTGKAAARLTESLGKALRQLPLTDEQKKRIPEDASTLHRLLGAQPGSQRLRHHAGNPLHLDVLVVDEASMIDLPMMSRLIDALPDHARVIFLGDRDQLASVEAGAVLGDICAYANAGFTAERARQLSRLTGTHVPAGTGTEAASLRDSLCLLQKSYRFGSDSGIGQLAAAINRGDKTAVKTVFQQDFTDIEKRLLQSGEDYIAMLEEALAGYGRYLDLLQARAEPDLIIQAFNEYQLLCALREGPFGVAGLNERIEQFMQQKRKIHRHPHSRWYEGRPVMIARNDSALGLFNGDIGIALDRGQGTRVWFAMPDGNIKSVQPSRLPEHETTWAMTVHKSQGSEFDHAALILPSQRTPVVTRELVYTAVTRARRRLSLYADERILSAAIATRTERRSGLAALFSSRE
T3 sequence (P07648 whole entry): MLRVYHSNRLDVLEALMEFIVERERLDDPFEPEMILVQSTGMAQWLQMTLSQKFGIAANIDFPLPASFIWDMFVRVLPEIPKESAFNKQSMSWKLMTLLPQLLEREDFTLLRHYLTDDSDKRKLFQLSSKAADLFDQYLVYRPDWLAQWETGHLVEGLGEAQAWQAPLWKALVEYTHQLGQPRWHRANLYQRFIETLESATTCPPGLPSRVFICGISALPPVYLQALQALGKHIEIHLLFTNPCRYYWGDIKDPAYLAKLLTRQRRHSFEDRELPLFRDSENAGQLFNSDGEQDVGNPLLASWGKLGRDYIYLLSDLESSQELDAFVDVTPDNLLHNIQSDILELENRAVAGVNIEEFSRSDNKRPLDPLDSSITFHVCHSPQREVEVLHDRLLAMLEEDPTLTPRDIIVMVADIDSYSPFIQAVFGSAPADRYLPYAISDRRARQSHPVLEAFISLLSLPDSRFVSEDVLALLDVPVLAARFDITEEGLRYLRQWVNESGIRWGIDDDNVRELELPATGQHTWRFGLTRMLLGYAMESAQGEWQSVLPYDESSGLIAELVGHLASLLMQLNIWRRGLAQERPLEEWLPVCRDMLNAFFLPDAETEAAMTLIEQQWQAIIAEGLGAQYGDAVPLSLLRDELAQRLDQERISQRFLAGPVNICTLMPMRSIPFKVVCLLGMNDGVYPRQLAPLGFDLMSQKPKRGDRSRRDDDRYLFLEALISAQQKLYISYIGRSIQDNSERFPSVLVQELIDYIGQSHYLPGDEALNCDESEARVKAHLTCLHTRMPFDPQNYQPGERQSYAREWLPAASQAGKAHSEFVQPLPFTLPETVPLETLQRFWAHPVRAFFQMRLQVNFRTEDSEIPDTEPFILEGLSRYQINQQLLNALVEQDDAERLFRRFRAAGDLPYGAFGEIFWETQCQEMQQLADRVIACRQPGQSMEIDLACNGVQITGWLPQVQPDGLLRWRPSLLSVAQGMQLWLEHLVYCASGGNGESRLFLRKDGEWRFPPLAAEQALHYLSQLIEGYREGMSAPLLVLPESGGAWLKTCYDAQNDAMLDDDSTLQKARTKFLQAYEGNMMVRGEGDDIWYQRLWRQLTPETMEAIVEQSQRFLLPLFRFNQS
T3 sequence (P08394 whole entry): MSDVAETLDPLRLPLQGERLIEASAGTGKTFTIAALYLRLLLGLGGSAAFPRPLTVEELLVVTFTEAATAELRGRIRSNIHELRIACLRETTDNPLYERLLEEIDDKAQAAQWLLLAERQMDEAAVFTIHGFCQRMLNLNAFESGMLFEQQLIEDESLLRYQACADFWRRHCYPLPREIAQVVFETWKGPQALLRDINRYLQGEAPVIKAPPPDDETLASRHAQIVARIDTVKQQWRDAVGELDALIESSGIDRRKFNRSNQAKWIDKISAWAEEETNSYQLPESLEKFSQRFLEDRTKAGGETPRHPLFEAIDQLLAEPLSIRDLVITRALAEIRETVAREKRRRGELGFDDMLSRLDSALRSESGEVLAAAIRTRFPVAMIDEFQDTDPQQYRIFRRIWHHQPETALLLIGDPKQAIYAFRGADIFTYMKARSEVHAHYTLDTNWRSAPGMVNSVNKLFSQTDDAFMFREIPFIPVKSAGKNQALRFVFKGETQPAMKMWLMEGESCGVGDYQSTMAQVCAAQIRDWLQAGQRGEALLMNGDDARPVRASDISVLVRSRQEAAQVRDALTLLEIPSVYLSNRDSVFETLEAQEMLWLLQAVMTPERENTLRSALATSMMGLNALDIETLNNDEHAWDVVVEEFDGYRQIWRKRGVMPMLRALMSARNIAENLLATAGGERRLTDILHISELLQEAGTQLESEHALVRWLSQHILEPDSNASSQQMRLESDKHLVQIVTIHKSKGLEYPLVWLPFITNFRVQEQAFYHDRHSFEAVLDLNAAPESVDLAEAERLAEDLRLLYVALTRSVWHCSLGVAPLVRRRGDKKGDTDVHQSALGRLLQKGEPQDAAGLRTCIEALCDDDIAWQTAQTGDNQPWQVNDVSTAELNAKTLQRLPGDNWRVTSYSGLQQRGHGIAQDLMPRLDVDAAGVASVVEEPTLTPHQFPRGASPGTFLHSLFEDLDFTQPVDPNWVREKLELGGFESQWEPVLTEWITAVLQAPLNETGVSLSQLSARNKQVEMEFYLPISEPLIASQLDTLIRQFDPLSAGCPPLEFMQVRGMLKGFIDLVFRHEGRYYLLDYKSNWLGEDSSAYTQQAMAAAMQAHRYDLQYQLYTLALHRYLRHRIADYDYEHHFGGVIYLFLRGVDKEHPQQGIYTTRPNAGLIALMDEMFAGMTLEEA

[11] = cells; assay type: functional, cell-based
[12] = cells; assay type: functional, cell-based; remark: listed apart in the source
[13] = target: Heat shock protein HSP 90-alpha (Homo sapiens, UniProt P07900); assay type: functional, organism-based
[14] = non-specific 3'UTR reporter inhibition in Clone20-Shn3RL – cell-based, Renilla luciferase, cherry-picked, counter-screen for Shn3 inhibitor project, dose response (AID 624133); assay type: functional
[15] = loss of viability in HepG2 cells – cell-based, CellTiter-Glo, cherry-picked, cytotoxicity control for Shn3 inhibitor project, dose response (AID 624134); assay type: functional
[16] = system: INS1; assay: INS-1E survival protection against cytokine death – cell-based, luminescence, retest, dose response (AID 449756); assay type: functional; conditions: Rattus norvegicus;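 further: cell death triggered by IL-1 beta plus TNF-alpha plus IFN-gamma mixture; protective hits raise ATP signal compared with cytokine alone wells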
[17] = reduction of Shn3 3'UTR-driven luciferase in osteoblasts – cell-based, Clone20 osteoblasts, firefly luciferase, cherry-picked, dose response (AID 624132); assay type: functional;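 further: firefly luciferase luminescence from reporter carrying the Shn3 3'UTR in osteoblasts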
[18] = system: HEK293; assay: EBV LMP1 TES2 canonical NF-kB signalling blockers – cell-based, HEK293, luciferase, cherry-pick, dose response (AID 588343); assay type: functional; conditions: Homo sapiens

What does the source list for `CCc1nc(Nc2ccncc2)c2oc3ccccc3c2n1`?
AC50 [1]: 15.5 µM (active); EC50 [2]: 6.58 µM (active); EC50 [3]: > 160 µM (inactive); EC50 [4]: 2.48 µM (active); EC50 [5]: 6.45 µM (active); EC50 [6]: > 60 µM (not active); AC50 [7]: 5.23 µM (active); EC50 [8]: 0.6 µM (active)

Which IC50 [9] does the source give for `COc1ccccc1/C=C1\SC(=S)N(CCC(=O)NNC(=O)c2ccccc2O)C1=O` here?
Its IC50 is > 119 µM (inactive).

And the IC50 [10]?
The IC50 was > 119 µM (inactive).

For `CCC(=O)NC(c1ccc(Cl)cc1Cl)c1ccc2cccnc2c1O` (centres undefined), which EC50 [11] is on record?
Its EC50 is > 350 µM (not active).

What about the EC50 [12] of the same compound?
The EC50 was 7.3 µM (active).

What about the EC50 [3] of the same compound?
Its EC50 is 3.86 µM (inconclusive).

And the AC50 [13]?
Its AC50 is 3.22 µM (active).

What about the AC50 [14] of the same compound?
The AC50 was 1.33 µM (active).

What about the IC50 [9] of the same compound?
The IC50 was > 119 µM (inactive).

What about the EC50 [4] of the same compound?
Its EC50 is 0.354 µM (active).

And the AC50 [15]?
The AC50 was 28.8 µM (active).

What about the EC50 [6] of the same compound?
Its EC50 is 0.434 µM (active).

And the AC50 [16]?
Its AC50 is 0.478 µM (active).

What about the IC50 [10] of the same compound?
The IC50 was > 119 µM (inactive).

And the AC50 [17]?
The AC50 was 1.19 µM (active).

What about the EC50 [8] of the same compound?
The EC50 was 0.296 µM (active).

And the AC50 [18]?
The AC50 was 4.55 µM (active).

— ChEMBL document CHEMBL1201862, “PubChem BioAssay data set” (2004)
